{"source": "PubChem BioAssay AID1996"}
{"details": "buffer; pH 7.4; 200.0 µM", "units": {"solubility kinetic": "µg/mL"}}
{"smiles": "Cc1ccc(CNC(=O)C2CCC(=O)N(C3CC3)C2)cc1", "note": "(stereo unspecified)", "solubility kinetic": "> 43"}
{"smiles": "COc1ccc(C(=O)OCC(=O)NC2CC2)cc1OC", "solubility kinetic": "> 41.9"}
{"smiles": "Cc1cc(N2C(=O)Cc3ccccc3C2=O)ccc1C(C)C", "solubility kinetic": 35}
{"smiles": "Cc1c(C(=O)NCCSCc2ccccc2)cccc1[N+](=O)[O-]", "solubility kinetic": 46.6}
{"smiles": "COc1ccc(C(=O)N2CCCc3ccccc32)cc1Br", "solubility kinetic": 26.4}
{"smiles": "C/C(=N\\O)c1cc(Cl)ccc1O", "solubility kinetic": "> 27.8"}
{"smiles": "O=C(NN1CCOCC1)c1ccc(Cl)c([N+](=O)[O-])c1", "solubility kinetic": "> 42.9"}
{"smiles": "O=C(NC1CCCC1)C1CCCN(C(=O)Nc2ccccc2)C1", "note": "(stereo unspecified)", "solubility kinetic": 43.9}
{"smiles": "CC(=O)N1CCN(c2ccc(NC(=O)c3ccccc3)cc2)CC1", "solubility kinetic": 40.5}
{"smiles": "CCN(C(=O)COC(=O)c1ccc2c(c1)OCO2)c1ccc(F)cc1", "solubility kinetic": 10.4}
{"smiles": "COc1cccc(-c2nc(-c3ccncc3)no2)c1", "solubility kinetic": 3.5}
{"smiles": "Cc1cccc(NC(=O)Cn2nc(-c3ccco3)ccc2=O)c1C", "solubility kinetic": "> 48.5"}
{"smiles": "CCC(=O)c1cn(CC(=O)Nc2ccc(C)cc2)c2ccccc12", "solubility kinetic": "< 0.3"}
{"smiles": "N#Cc1cc2c([nH]c1=O)CCCC2", "solubility kinetic": "> 26.1"}
{"smiles": "Cc1ccccc1NC(=O)N1CCCN(c2ccc(C#N)cn2)CC1", "solubility kinetic": "> 50.3"}
{"smiles": "COc1ccc(Cl)cc1NC(=O)CSc1cccc[n+]1[O-]", "solubility kinetic": "> 48.7"}
{"smiles": "O=C(COC(=O)CCC(=O)c1ccc(F)cc1)NCc1ccco1", "solubility kinetic": "> 50"}
{"smiles": "O=C(O)c1cc(-c2cccs2)nc2ccc(F)cc12", "solubility kinetic": "> 41"}
{"smiles": "CC1CCC(NC(=O)c2cccn2C)CC1", "note": "(stereo unspecified)", "solubility kinetic": "> 33"}
{"smiles": "Cc1cc(NC(=O)CCCn2cnc([N+](=O)[O-])n2)no1", "solubility kinetic": "> 42"}
{"smiles": "CCOc1ccc(/C=N/OCC(=O)NCc2ccco2)cc1", "solubility kinetic": "> 45.3"}
{"smiles": "COC(=O)C(=CC(=CN(C)C)C=C(C(=O)OC)C(=O)OC)C(=O)OC", "solubility kinetic": "> 53.3"}
{"smiles": "O=C(COC(=O)CN1C(=O)C2CCCCC2C1=O)Nc1ccc(F)c(F)c1F", "note": "(stereo unspecified)", "solubility kinetic": "> 59.8"}
{"smiles": "O=c1c2ccccc2sn1-c1nccs1", "solubility kinetic": 1.4}
{"smiles": "O=C(/C=C/c1ccccc1)Nc1cccnc1Oc1ccccc1F", "solubility kinetic": 2.7}
{"smiles": "Cc1cccc(NC(=O)c2cc3ccccc3nc2C)c1", "solubility kinetic": 29.3}
{"smiles": "O=[N+]([O-])c1ccc(NCCN2CCOCC2)c([N+](=O)[O-])c1", "solubility kinetic": "> 44.4"}
{"smiles": "Cc1ccc(-c2cc(C(=O)NC3CCCCC3)no2)cc1", "solubility kinetic": "< 0.3"}
{"smiles": "COC(=O)c1ccc(NC(=S)N2CCCC2)cc1", "solubility kinetic": "> 39.7"}
{"smiles": "c1csc(-c2nc3ccccc3s2)c1", "solubility kinetic": 0.7}
{"smiles": "Nc1ccc(C(=O)OCc2nc3ccccc3s2)cc1", "solubility kinetic": 27}
{"smiles": "CC(=O)c1ccc(NC(=O)C2(c3ccccc3)CC2(Cl)Cl)cc1", "note": "(stereo unspecified)", "solubility kinetic": 19.6}
{"smiles": "Cc1cc(Br)ccc1NC(=O)CN(C)C(=O)C1=COCCO1", "solubility kinetic": "> 55.4"}
{"smiles": "O=C(CN1CCN(c2ccccc2F)CC1)NC(=O)NC1CCCCC1", "solubility kinetic": "> 54.4"}
{"smiles": "O=C(COC(=O)/C=C/c1ccccc1[N+](=O)[O-])NCc1ccco1", "solubility kinetic": 18.7}
{"smiles": "O=C(CSc1ccccn1)NC1CCCC1", "solubility kinetic": "> 35.4"}
{"smiles": "Cl.O=C(CN1CCCC1)Nc1ccc(Br)cc1", "solubility kinetic": "> 47.9"}
{"smiles": "N#C/C(=C\\c1cccs1)C(=O)N1CCOCC1", "solubility kinetic": 35.5}
{"smiles": "Cc1c(C(=O)N2CCCC(C(F)(F)F)C2)oc2ccccc12", "note": "(stereo unspecified)", "solubility kinetic": 31.8}
{"smiles": "O=C(NC1CC2CCCC(C1)N2C(=O)Nc1ccccc1)c1ccccc1", "note": "(stereo unspecified)", "solubility kinetic": 4.6}
{"smiles": "OCCNc1cc(Cl)ncn1", "solubility kinetic": "> 26"}
{"smiles": "O=C(NCCCN1CCOCC1)C(=O)NCCc1ccccc1", "solubility kinetic": "> 47.9"}
{"smiles": "COC(=O)c1cccc(NC(=O)CSCc2ccccc2)c1", "solubility kinetic": 35.6}
{"smiles": "Cc1ccc([N+](=O)[O-])c(OCCCN2C(=O)NC(C)(C)C2=O)c1", "solubility kinetic": "> 48.2"}
{"smiles": "CCn1c(=O)c(C(=O)CN(C)CC(=O)Nc2cccc(F)c2)c(N)n(Cc2ccccc2)c1=O", "solubility kinetic": 15.6}
{"smiles": "CCCCc1nc(Cl)c(C#N)c2c1CCC2", "solubility kinetic": 3.4}
{"smiles": "CC(C)N(Cc1ccccc1)C(=S)Nc1ccccc1F", "solubility kinetic": 40}
{"smiles": "CC(C)(C)NC(=O)Cn1c(Cl)nc2ccccc21", "solubility kinetic": "> 39.9"}
{"smiles": "Cc1ccc(NC(=O)C(C)OC(=O)/C=C/c2ccccc2)cc1", "note": "(stereo unspecified)", "solubility kinetic": 4}
{"smiles": "COc1ccccc1N1C(=S)NC2CS(=O)(=O)CC21", "note": "(stereo unspecified)", "solubility kinetic": "> 44.8"}
{"smiles": "CN(c1ccccc1)c1nc(N)c([N+](=O)[O-])c(NC2CCCCC2)n1", "solubility kinetic": "< 0.1"}
{"smiles": "O=C(CNc1cccc(Cl)c1)c1ccc(Br)cc1", "solubility kinetic": "< 0.7"}
{"smiles": "COC(=O)c1sc2nc3c(cc2c1N)CCCC3", "solubility kinetic": 2}
{"smiles": "CCCCN(CCCC)c1nc(-c2ccncc2)nc2ccccc12", "solubility kinetic": "< 0.2"}
{"smiles": "CCCCCCCn1c(=O)c(C(=O)OC)c(N)c2ccccc21", "solubility kinetic": "< 0.3"}
{"smiles": "COCCOC(=O)C(CC(=O)O)NCc1ccco1", "note": "(stereo unspecified)", "solubility kinetic": "> 40.7"}
{"smiles": "COc1cccc(NC(=O)Cn2cc(C(=O)C3CC3)c3ccccc32)c1", "solubility kinetic": 0.8}
{"smiles": "CCOC(=O)C(Cc1ccccc1)C(=O)NCc1ccccc1", "note": "(stereo unspecified)", "solubility kinetic": "> 46.7"}
{"smiles": "O=C(Cc1ccccc1)Nc1ncccc1Cl", "solubility kinetic": "> 37"}
{"smiles": "CCCn1c(N)c(N2CCCCC2)c(=O)n(CC(=O)Nc2ccccc2C(F)(F)F)c1=O", "solubility kinetic": 7.7}
{"smiles": "O=C(Nc1ccc(S(=O)(=O)Nc2ncccn2)cc1)c1ccccc1", "solubility kinetic": "> 53.2"}
{"smiles": "CC(C)Oc1ccc(C(=O)Nc2ccc([N+](=O)[O-])cc2)cc1", "solubility kinetic": "< 0.3"}
{"smiles": "O=S(=O)(c1ccc2ccccc2c1)N1CCc2ccccc21", "solubility kinetic": "< 0.7"}
{"smiles": "O=C1CSC(c2ccc([N+](=O)[O-])cc2)N1c1ccc(O)cc1", "note": "(stereo unspecified)", "solubility kinetic": 46.4}
{"smiles": "CCOc1cc(N2CCOCC2)c(OCC)cc1NC(=O)c1cc(S(=O)(=O)N2CCOCC2)ccc1F", "solubility kinetic": 6.5}
{"smiles": "Cc1ccc(S(=O)(=O)N2CCCCC2)cc1NC(=O)c1ccccc1Cl", "solubility kinetic": 23.2}
{"smiles": "CCCc1cc(=O)[nH]c(SCC(=O)Nc2ccc(C)cc2)n1", "solubility kinetic": 3.1}
{"smiles": "Cl.O=[N+]([O-])c1cccc(CNCc2ccccc2)c1", "solubility kinetic": 40.2}
{"smiles": "COc1ccc(/C=C/C(=O)NC2CCCCC2C)cc1", "note": "(stereo unspecified)", "solubility kinetic": 4}
{"smiles": "CCc1nc2oc3ccc(C)cc3c(=O)c2cc1C(=O)OC", "solubility kinetic": "< 0.6"}
{"smiles": "Cc1cccc(Nc2c([N+](=O)[O-])c(=O)oc3ccccc23)c1", "solubility kinetic": "< 0.3"}
{"smiles": "CCc1ccc(NCc2ccc(OC)c(Cn3ccnc3)c2)cc1", "solubility kinetic": 40.2}
{"smiles": "Cc1ccc(C(C)NC(=O)Cc2cccs2)c(C)c1", "note": "(stereo unspecified)", "solubility kinetic": 34.4}
{"smiles": "Cc1cc(C(c2cc(C)c(N)c(C)c2)c2ccco2)cc(C)c1N", "solubility kinetic": 23.9}
{"smiles": "O=C(Cc1nc2ccccc2[nH]1)c1ccc(Cl)cc1", "solubility kinetic": 24.2}
{"smiles": "Cc1cccc(C)c1NC(=O)c1ccc(OCc2c(C)noc2C)cc1", "solubility kinetic": 8.7}
{"smiles": "Clc1ccc(-c2nc(C3CCCCC3)no2)cc1", "solubility kinetic": "< 0.3"}
{"smiles": "Cc1cccc(OCCCC(=O)NC2CCCCC2)c1", "solubility kinetic": 14.1}
{"smiles": "COc1ccccc1N1CCN(Cc2nc3ccccc3[nH]2)CC1", "solubility kinetic": 47.9}
{"smiles": "N#Cc1ccccc1OCC(=O)OCC(=O)NC1CCCCC1", "solubility kinetic": "> 47.5"}
{"smiles": "COc1cc(/C=C/C(=O)OCC(=O)NC(C)c2ccccc2)cc(OC)c1OC", "note": "(stereo unspecified)", "solubility kinetic": 54.9}
{"smiles": "O=C(Nc1ccccc1C(=O)Nc1ccccc1)c1cccs1", "solubility kinetic": 1}
{"smiles": "Cc1ccc(C(=O)C2=C(O)C(=O)N(Cc3ccco3)C2c2ccc(N(C)C)cc2)o1", "note": "(stereo unspecified)", "solubility kinetic": "> 61"}
{"smiles": "Cc1c(C(=O)O)c(C(=O)O)c2n1CCS2", "solubility kinetic": "> 34.1"}
{"smiles": "Cc1nc(N2CCCCC2)c(C#N)c(C)c1[N+](=O)[O-]", "solubility kinetic": 3.8}
{"smiles": "CCc1ccc(C(C)NC(=O)C2CCCO2)cc1", "note": "(stereo unspecified)", "solubility kinetic": 34.9}
{"smiles": "CC(Oc1ccc(Cl)cc1)C(=O)Nc1ccccc1N1CCOCC1", "note": "(stereo unspecified)", "solubility kinetic": 10.1}
{"smiles": "Cc1cccc(OC(C)C(=O)Nc2ccc(S(=O)(=O)N3CCCC3)cc2)c1", "note": "(stereo unspecified)", "solubility kinetic": 16.4}
{"smiles": "Cc1nnc(SCC(=O)NC(=O)NCc2ccco2)s1", "solubility kinetic": "> 46.9"}
{"smiles": "Cc1cc(-c2nc(-c3ccc(C(C)(C)C)cc3)no2)no1", "solubility kinetic": "< 0.2"}
{"smiles": "Nc1ccc(C(=O)O)cc1[N+](=O)[O-]", "solubility kinetic": "> 27.3"}
{"smiles": "O=C(c1cnc2ccccc2n1)N1CCN(c2ccc(C(F)(F)F)cn2)CC1", "solubility kinetic": 1}
{"smiles": "Cc1cc(C(=O)Nc2ccc3c(c2)CCC3)ccc1[N+](=O)[O-]", "solubility kinetic": "< 0.3"}
{"smiles": "Cn1c(N)c(C(=O)COC(=O)COc2ccc(Cl)cc2Cl)c(=O)n(C)c1=O", "solubility kinetic": 4.7}
{"smiles": "Cc1ccc(-n2c(C)c(C)c3c(NCCO)ncnc32)cc1", "solubility kinetic": "> 44.5"}
{"smiles": "O=S(=O)(NCC1CC1)c1cc(Cl)cc(Cl)c1", "solubility kinetic": 10.2}
{"smiles": "Cc1ccccc1OCC(=O)N1CCCCCCC1", "solubility kinetic": "> 39.2"}
{"smiles": "Cn1c(SCc2c(F)cccc2Cl)nc2c(c1=O)SCC2", "solubility kinetic": 6.1}
{"smiles": "CNc1nc(N)c(C(=O)Nc2cc(C)on2)s1", "solubility kinetic": 35.4}
{"smiles": "Cn1ccsc1=NC(=O)c1ccc(S(=O)(=O)C(F)F)cc1", "solubility kinetic": 2.5}
{"smiles": "O=C(CN1CCN(c2ccccc2F)CC1)NCc1ccccc1", "solubility kinetic": 40.8}
{"smiles": "Cn1c(C(=O)N[C@@H](Cc2ccccc2)C(=O)O)cc2cc(F)ccc21", "solubility kinetic": "> 51.1"}
{"smiles": "O=C(NCc1ccccc1)C1CCN(C(=O)Cc2ccccc2)CC1", "solubility kinetic": "> 50.5"}
{"smiles": "Cc1ccc(NC(=O)NCCCN2CCCC2=O)cc1Cl", "solubility kinetic": "> 46.5"}
{"smiles": "CCC(C)c1ccccc1NC(=O)c1cc(C)no1", "note": "(stereo unspecified)", "solubility kinetic": "> 38.7"}
{"smiles": "COc1ccc(C)cc1NC(=O)NCc1ccco1", "solubility kinetic": 11}
{"smiles": "CCCNC(=O)Cn1c(=O)n(C)c2ccccc21", "solubility kinetic": "> 37.1"}
{"smiles": "Cc1cccc(NC(=O)C(C)C(=O)c2ccccc2)c1", "note": "(stereo unspecified)", "solubility kinetic": 8.5}
{"smiles": "Cc1cc(=O)n2c(-c3ccc(Cl)cc3)csc2n1", "solubility kinetic": 7.9}
{"smiles": "CC(C)(C)NC(=O)c1ccc2c(c1)CCO2", "solubility kinetic": "> 32.9"}
{"smiles": "COc1ccc(Cl)cc1N=Cc1c(O)n(C)c(=O)n(C)c1=O", "solubility kinetic": 2}
{"smiles": "O=C(OCC(=O)N1CCCCCC1)c1cccnc1Cl", "solubility kinetic": "> 44.5"}
{"smiles": "O=[N+]([O-])c1ccc(N2CCN(c3ccccn3)CC2)c(Cl)c1", "solubility kinetic": 0.8}
{"smiles": "O=S1(=O)c2cccc3cccc(c23)N1CCBr", "solubility kinetic": 17.7}
{"smiles": "COc1ccc(Cl)cc1Nc1nc(N)c2ccccc2n1.Cl", "solubility kinetic": 5.3}
{"smiles": "Cc1ccc(C2(c3ccc(C)cc3)NC(=O)N(CC(=O)NCCCN3CCCC3=O)C2=O)cc1", "solubility kinetic": "> 69.4"}
{"smiles": "Cc1ccc(S(=O)(=O)N(C)C)cc1NC(=O)c1cccs1", "solubility kinetic": 39.8}
{"smiles": "NCCCS(=O)(=O)O", "solubility kinetic": "< 0.3"}
{"smiles": "Nc1cccc(CCc2ccncc2)c1", "solubility kinetic": "> 29.7"}
{"smiles": "O=C(O)Cn1c(-c2ccccc2)cc2ccccc21", "solubility kinetic": 25.3}
{"smiles": "Cc1c(C#N)c2ccccc2n1C", "solubility kinetic": 19.9}
